These results are taken from US10131644B2, “Aryl sultam derivatives as RORc modulators” (Genentech, Inc., priority 2014, dated 2018).

The target of this assay is T1, RORc (Homo sapiens, UniProt P51449).
T1 sequence (P51449 269-508 limits assumed): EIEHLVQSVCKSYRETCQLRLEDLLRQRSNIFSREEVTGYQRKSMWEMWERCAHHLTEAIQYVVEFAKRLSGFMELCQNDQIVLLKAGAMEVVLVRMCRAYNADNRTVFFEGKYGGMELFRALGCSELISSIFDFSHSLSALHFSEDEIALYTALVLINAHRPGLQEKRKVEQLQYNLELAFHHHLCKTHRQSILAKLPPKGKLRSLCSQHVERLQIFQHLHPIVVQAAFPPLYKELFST
The assay is described as follows: In vitro RORc ligand binding assay (25-[3H]hydroxycholesterol displacement). Conditions: IC50, IC50 values for RORc; unit inferred.

In turn, `C[C@H]1CC[C@H](c2ccccc2)S(=O)(=O)N1Cc1ccc(C2(C(=O)NCCO)CCOCC2)cc1F` [Compound 48, 4-(3-fluoro-4-(((3S,6R)-3-methyl-1,1-dioxido-6-phenyl-1,2-thiazinan-2-yl)methyl)phenyl)-N-(2-hydroxyethyl)tetrahydro-2H-pyran-4-carboxamide] showed an IC50 of 337 nM.
In turn, `CC(=O)N1CCC(O)(c2ccc(CN3[C@@H](C)CCC(c4ccccc4)S3(=O)=O)cc2)CC1` (stereo partly drawn) [Compound 49, 1-{4-Hydroxy-4-[4-((S)-3-methyl-1,1-dioxo-6-phenyl-[1,2]thiazinan-2-ylmethyl)-phenyl]-piperidin-1-yl}-ethanone] had an IC50 of 120 nM.
Next, `CC(=O)NCCNC(=O)C1(c2ccc(CN3[C@@H](C)CC[C@H](c4ccccc4)S3(=O)=O)c(F)c2)CCOCC1` [Compound 50, N-(2-acetamidoethyl)-4-[3-fluoro-4-[[(3S,6R)-3-methyl-1,1-dioxo-6-phenyl-thiazinan-2-yl]methyl]phenyl]tetrahydropyran-4-carboxamide]: 250 nM; `CCNC(=O)C1(c2ccc(CN3[C@@H](C)CC[C@H](c4ccccc4)S3(=O)=O)c(F)c2)CCOCC1` [Compound 51, N-ethyl-4-[3-fluoro-4-[[(3S,6R)-3-methyl-1,1-dioxo-6-phenyl-thiazinan-2-yl]methyl]phenyl]tetrahydropyran-4-carboxamide]: 147 nM; `C[C@H]1CC[C@H](c2ccccc2)S(=O)(=O)N1Cc1ccc(C2(C(=O)NCCN)CCOCC2)cc1F` [Compound 52, N-(2-aminoethyl)-4-[3-fluoro-4-[[(3S,6R)-3-methyl-1,1-dioxo-6-phenyl-thiazinan-2-yl]methyl]phenyl]tetrahydropyran-4-carboxamide]: 480 nM.
The result for `C[C@H]1CC[C@H](c2ccccc2)S(=O)(=O)N1Cc1ccc(C2(C(=O)NCCN(C)C)CCOCC2)cc1F` [Compound 53, N-[2-(dimethylamino)ethyl]-4-[3-fluoro-4-[[(3S,6R)-3-methyl-1,1-dioxo-6-phenyl-thiazinan-2-yl]methyl]phenyl]tetrahydropyran-4-carboxamide] reads 845 nM; that for `C[C@H]1CC[C@H](c2ccccc2)S(=O)(=O)N1Cc1ccc(C2(C(=O)NCCCO)CCOCC2)cc1F` [Compound 54, 4-[3-fluoro-4-[[(3S,6R)-3-methyl-1,1-dioxo-6-phenyl-thiazinan-2-yl]methyl]phenyl]-N-(3-hydroxypropyl)tetrahydropyran-4-carboxamide], 79.8 nM; that for `C[C@H]1CC[C@H](c2ccccc2)S(=O)(=O)N1Cc1ccc(C2(C(=O)NCCCN)CCOCC2)cc1F` [Compound 55, N-(3-aminopropyl)-4-[3-fluoro-4-[[(3S,6R)-3-methyl-1,1-dioxo-6-phenyl-thiazinan-2-yl]methyl]phenyl]tetrahydropyran-4-carboxamide], 913 nM.
Next, `C[C@H]1CC[C@H](c2ccccc2)S(=O)(=O)N1Cc1ccc(C2(C(=O)NCC(=O)N(C)C)CCOCC2)cc1F` [Compound 56, N-[2-(dimethylamino)-2-oxo-ethyl]-4-[3-fluoro-4-[[(3S,6R)-3-methyl-1,1-dioxo-6-phenyl-thiazinan-2-yl]methyl]phenyl]tetrahydropyran-4-carboxamide]: 403 nM.
Compound `C[C@H]1CC[C@H](c2ccccc2)S(=O)(=O)N1Cc1ccc(C2(C(=O)NCC#N)CCOCC2)cc1F` [Compound 57, N-(cyanomethyl)-4-[3-fluoro-4-[[(3S,6R)-3-methyl-1,1-dioxo-6-phenyl-thiazinan-2-yl]methyl]phenyl]tetrahydropyran-4-carboxamide] came in with an IC50 of 80.2 nM.
With `C[C@H]1CC[C@H](c2ccccc2)S(=O)(=O)N1Cc1ccc(C2(C(=O)NCC(=O)O)CCOCC2)cc1F` [Compound 58, 2-[[4-[3-fluoro-4-[[(3S,6R)-3-methyl-1,1-dioxo-6-phenyl-thiazinan-2-yl]methyl]phenyl]tetrahydropyran-4-carbonyl]amino]acetic acid], the IC50 is 228 nM.
As for `C[C@H]1CC[C@H](c2ccccc2)S(=O)(=O)N1Cc1ccc(C2(C(=O)NCC(N)=O)CCOCC2)cc1F` [Compound 59, N-(2-amino-2-oxo-ethyl)-4-[3-fluoro-4-[[(3S,6R)-3-methyl-1,1-dioxo-6-phenyl-thiazinan-2-yl]methyl]phenyl]tetrahydropyran-4-carboxamide], the IC50 was found to be 268 nM.
Next, `C[C@H]1CC[C@H](c2ccccc2)S(=O)(=O)N1Cc1ccc(C2(C(=O)NCCS(C)(=O)=O)CCOCC2)cc1F` [Compound 60, 4-[3-fluoro-4-[[(3S,6R)-3-methyl-1,1-dioxo-6-phenyl-thiazinan-2-yl]methyl]phenyl]-N-(2-methylsulfonylethyl)tetrahydropyran-4-carboxamide]: 111 nM; `C[C@H]1CC[C@H](c2ccccc2)S(=O)(=O)N1Cc1ccc(C2(C#N)CCOCC2)cc1F` [Compound 61, 4-[3-fluoro-4-[[(3S,6R)-3-methyl-1,1-dioxo-6-phenyl-thiazinan-2-yl]methyl]phenyl]tetrahydropyran-4-carbonitrile]: 186 nM; `C[C@H]1CC[C@H](c2ccccc2)S(=O)(=O)N1Cc1ccc(C2(C(=O)NCC(C)(C)O)CCOCC2)cc1F` [Compound 62, 4-[3-fluoro-4-[[(3S,6R)-3-methyl-1,1-dioxo-6-phenyl-thiazinan-2-yl]methyl]phenyl]-N-(2-hydroxy-2-methyl-propyl)tetrahydropyran-4-carboxamide]: 149 nM.
The result for `C[C@H](O)CNC(=O)C1(c2ccc(CN3[C@@H](C)CC[C@H](c4ccccc4)S3(=O)=O)c(F)c2)CCOCC1` [Compound 63, 4-[3-fluoro-4-[[(3S,6R)-3-methyl-1,1-dioxo-6-phenyl-thiazinan-2-yl]methyl]phenyl]-N-[(2S)-2-hydroxypropyl]tetrahydropyran-4-carboxamide] reads 36 nM; that for `COCCNC(=O)C1(c2ccc(CN3[C@@H](C)CC[C@H](c4ccccc4)S3(=O)=O)c(F)c2)CCOCC1` [Compound 64, 4-[3-fluoro-4-[[(3S,6R)-3-methyl-1,1-dioxo-6-phenyl-thiazinan-2-yl]methyl]phenyl]-N-(2-methoxyethyl)tetrahydropyran-4-carboxamide], 89 nM; that for `C[C@H]1CC[C@H](c2ccccc2)S(=O)(=O)N1Cc1ccc(C2(C(=O)NCCC#N)CCOCC2)cc1F` [Compound 65, N-(2-cyanoethyl)-4-[3-fluoro-4-[[(3S,6R)-3-methyl-1,1-dioxo-6-phenyl-thiazinan-2-yl]methyl]phenyl]tetrahydropyran-4-carboxamide], 52.9 nM.
The result for `C[C@@H](O)CNC(=O)C1(c2ccc(CN3[C@@H](C)CC[C@H](c4ccccc4)S3(=O)=O)c(F)c2)CCOCC1` [Compound 66] reads 47.4 nM.
On to `C[C@H]1CC[C@H](c2ccccc2)S(=O)(=O)N1Cc1ccc(C2(C(N)=O)CCOCC2)cc1F` [Compound 67, 4-[3-fluoro-4-[[(3S,6R)-3-methyl-1,1-dioxo-6-phenyl-thiazinan-2-yl]methyl]phenyl]tetrahydropyran-4-carboxamide], for which the IC50 was determined as 18 nM.
`C[C@H]1CC[C@H](c2ccccc2)S(=O)(=O)N1Cc1ccc(C2(CO)CCOCC2)cc1F` [Compound 68, [4-[3-fluoro-4-[[(3S,6R)-3-methyl-1,1-dioxo-6-phenyl-thiazinan-2-yl]methyl]phenyl]tetrahydropyran-4-yl]methanol] showed an IC50 of 38.5 nM.
`C[C@H]1CC[C@H](c2ccccc2)S(=O)(=O)N1Cc1ccc(C2(O)CCOCC2)cc1F` [Compound 69, 4-[3-fluoro-4-[[(3S,6R)-3-methyl-1,1-dioxo-6-phenyl-thiazinan-2-yl]methyl]phenyl]tetrahydropyran-4-ol] came in with an IC50 of 93 nM.
The result for `CC(=O)NCC1(c2ccc(CN3[C@@H](C)CC[C@H](c4ccccc4)S3(=O)=O)c(F)c2)CCOCC1` [Compound 70, N-[[4-[3-fluoro-4-[[(3S,6R)-3-methyl-1,1-dioxo-6-phenyl-thiazinan-2-yl]methyl]phenyl]tetrahydropyran-4-yl]methyl]acetamide] reads 148 nM; that for `C[C@H]1CC[C@H](c2ccccc2)S(=O)(=O)N1Cc1ccc(C2(CNS(C)(=O)=O)CCOCC2)cc1F` [Compound 71, N-[[4-[3-fluoro-4-[[(3S,6R)-3-methyl-1,1-dioxo-6-phenyl-thiazinan-2-yl]methyl]phenyl]tetrahydropyran-4-yl]methyl]methanesulfonamide], 76.7 nM.
For the compound `C[C@H]1CC[C@H](c2ccccc2)S(=O)(=O)N1Cc1ccc(C2(/C=C/C#N)CCOCC2)cc1F` [Compound 72, (E)-3-[4-[3-fluoro-4-[[(3S,6R)-3-methyl-1,1-dioxo-6-phenyl-thiazinan-2-yl]methyl]phenyl]tetrahydropyran-4-yl]prop-2-enenitrile], the IC50 was found to be 8.7 nM.
As to `COC(=O)NCC1(c2ccc(CN3[C@@H](C)CC[C@H](c4ccccc4)S3(=O)=O)c(F)c2)CCOCC1` [Compound 73, methyl N-[[4-[3-fluoro-4-[[(3S,6R)-3-methyl-1,1-dioxo-6-phenyl-thiazinan-2-yl]methyl]phenyl]tetrahydropyran-4-yl]methyl]carbamate], the IC50 is 53.2 nM.
`C[C@H]1CC[C@H](c2ccccc2)S(=O)(=O)N1Cc1ccc(C2(CNC(=O)OC(C)(C)C)CCOCC2)cc1F` [Compound 74, tert-butyl N-[[4-[3-fluoro-4-[[(3S,6R)-3-methyl-1,1-dioxo-6-phenyl-thiazinan-2-yl]methyl]phenyl]tetrahydropyran-4-yl]methyl]carbamate]: the IC50 worked out at 141 nM.
The result for `C[C@H]1CC[C@H](c2ccccc2)S(=O)(=O)N1Cc1ccc(C2(CN)CCOCC2)cc1F` [Compound 75, [4-[3-fluoro-4-[[(3S,6R)-3-methyl-1,1-dioxo-6-phenyl-thiazinan-2-yl]methyl]phenyl]tetrahydropyran-4-yl]methanamine] reads 639 nM.
